According to patent US9169247B2, “Tetrahydro-beta-carboline derivatives, synthesis and use thereof” (Southern Research Institute, priority 2009, dated 2015):
Like-named read-outs stand apart in the source and are kept apart here.

Tests used:
[1] = test system: human Caki-1 renal tumor cell line; assay: Growth assay (Cell Titer Glo); assay type: cell-based
Procedure: FIGS. 3A-B illustrate the anticancer activity of compound 2j. […] The cells with treated for 72 hours prior to measuring cell viability using the Cell Titer Glo assay (Promega Corp.). […] Tumor bearing mice were treated at a dose of 10 mg/kg one time per day for 22 days.
All human tumor cell lines were obtained from ATCC and grown under standard cell culture conditions at 37° C. in a humidified atmosphere with 5% CO2. Cells were grown in RPMI 1640 supplemented with 5% fetal bovine serum 2 mM glutamine, 100 units/ml penicillin, 100 units/ml streptomycin, and 0.25 μg/ml amphotericin. Cells were harvested at 70 to 90% confluence with trypsin/EDTA and used immediately Cell count and viability was determined by Trypan blue staining followed by hemocytometry. Only cultures displaying >95% cell viability were used for experiments. […]
Tissue culture microtiter 96-well plates were seeded with cells at a density of 5,000 cells/well. […] Cell viability was measured 72 hours after treatment by the Cell Titer Glo Assay (Promega), which is a luminescent assay that is an indicator of live cells as a function of metabolic activity and ATP content. […] Luminescence was measured by a Perkin Elmer Victor® multi-label plate reader.^6
(§1) Dose response curves were analyzed using Prism™ 4 software (GraphPad) to calculate IC50 values using a four parameter logistic equation.

HCT-15 = assay: Growth assay (Cell Titer Glo); assay type: cell-based; details: Homo sapiens; HCT-15, colon
Procedure: (§2) All human tumor cell lines were obtained from ATCC and grown under standard cell culture conditions at 37° C. in a humidified atmosphere with 5% CO2. Cells were grown in RPMI 1640 supplemented with 5% fetal bovine serum 2 mM glutamine, 100 units/ml penicillin, 100 units/ml streptomycin, and 0.25 μg/ml amphotericin. Cells were harvested at 70 to 90% confluence with trypsin/EDTA and used immediately Cell count and viability was determined by Trypan blue staining followed by hemocytometry. Only cultures displaying >95% cell viability were used for experiments. HMEC were grown according to the specifications from the supplier (Lonzo).
(§3) Tissue culture microtiter 96-well plates were seeded with cells at a density of 5,000 cells/well. The plates were incubated for 18-24 hours prior to any treatment. All test compounds were solubilized in 100% DMSO and diluted with media to obtain a final DMSO concentration of 0.1%. Cell viability was measured 72 hours after treatment by the Cell Titer Glo Assay (Promega), which is a luminescent assay that is an indicator of live cells as a function of metabolic activity and ATP content. The assay was performed according to manufacturer's specifications. Luminescence was measured by a Perkin Elmer Victor® multi-label plate reader.^6
as §1

786-0 = assay: Growth assay (Cell Titer Glo); assay type: cell-based; details: Homo sapiens; 786-0, renal
Procedure: as §2, §3, §1

NCI-H460 = assay: Growth assay (Cell Titer Glo); assay type: cell-based; details: Homo sapiens; NCI-H460, lung
Procedure: as §2, §3, §1

HL-60(TB) = assay: Growth assay (Cell Titer Glo); assay type: cell-based; details: Homo sapiens, hematopoietic
Procedure: as §2, §3, §1

OVCAR-5 = assay: Growth assay (Cell Titer Glo); assay type: cell-based; details: Homo sapiens; OVCAR-5, ovarian
Procedure: as §2, §3, §1

SNB-75 = assay: Growth assay (Cell Titer Glo); assay type: cell-based; details: Homo sapiens; SNB-75, CNS
Procedure: as §2, §3, §1

UACC-62 = assay: Growth assay (Cell Titer Glo); assay type: cell-based; details: Homo sapiens; UACC-62, melanoma
Procedure: as §2, §3, §1

OVCAR-4 = assay: Growth assay (Cell Titer Glo); assay type: cell-based; details: Homo sapiens; OVCAR-4, ovarian
Procedure: as §2, §3, §1

SW-620 = assay: Growth assay (Cell Titer Glo); assay type: cell-based; details: Homo sapiens; SW-620, colon
Procedure: as §2, §3, §1

PC-3 = assay: Growth assay (Cell Titer Glo); assay type: cell-based; details: Homo sapiens; PC-3, prostate
Procedure: as §2, §3, §1

DU-145 = assay: Growth assay (Cell Titer Glo); assay type: cell-based; details: Homo sapiens; DU-145, prostate
Procedure: as §2, §3, §1

KM12 = assay: Growth assay (Cell Titer Glo); assay type: cell-based; details: Homo sapiens; KM12, colon
Procedure: as §2, §3, §1

SR = assay: Growth assay (Cell Titer Glo); assay type: cell-based; details: Homo sapiens, hematopoietic
Procedure: as §2, §3, §1

RXF-393 = assay: Growth assay (Cell Titer Glo); assay type: cell-based; details: Homo sapiens; RXF-393, renal
Procedure: as §2, §3, §1

NCI-H322M = assay: Growth assay (Cell Titer Glo); assay type: cell-based; details: Homo sapiens, lung
Procedure: as §2, §3, §1

T-47D = assay: Growth assay (Cell Titer Glo); assay type: cell-based; details: Homo sapiens, T47D, breast
Procedure: as §2, §3, §1

NCI-H23 = assay: Growth assay (Cell Titer Glo); assay type: cell-based; details: Homo sapiens; NCI-H23, lung
Procedure: as §2, §3, §1

SN12C = assay: Growth assay (Cell Titer Glo); assay type: cell-based; details: Homo sapiens, renal
Procedure: as §2, §3, §1

OVCAR-8 = assay: Growth assay (Cell Titer Glo); assay type: cell-based; details: Homo sapiens; OVCAR-8, ovarian
Procedure: as §2, §3, §1

RPMI-8226 = assay: Growth assay (Cell Titer Glo); assay type: cell-based; details: Homo sapiens; RPMI-8226, hematopoietic
Procedure: as §2, §3, §1

MALME-3M = assay: Growth assay (Cell Titer Glo); assay type: cell-based; details: Homo sapiens, melanoma
Procedure: as §2, §3, §1

[2] = test system: human MDA-MB-231 breast tumor cells; assay: Growth assay (Cell Titer Glo); assay type: cell-based; details: Homo sapiens
Procedure: as §2, §3, §1

SF-539 = assay: Growth assay (Cell Titer Glo); assay type: cell-based; details: Homo sapiens; SF-539, CNS
Procedure: as §2, §3, §1

IGROVI = assay: Growth assay (Cell Titer Glo); assay type: cell-based; details: Homo sapiens; IGROVI / IGROV-1, ovarian
Procedure: as §2, §3, §1

SF-268 = assay: Growth assay (Cell Titer Glo); assay type: cell-based; details: Homo sapiens; SF-268, CNS
Procedure: as §2, §3, §1

ACHN = assay: Growth assay (Cell Titer Glo); assay type: cell-based; details: Homo sapiens, renal
Procedure: as §2, §3, §1

CCFR-CEM = assay: Growth assay (Cell Titer Glo); assay type: cell-based; details: Homo sapiens, hematopoietic
Procedure: as §2, §3, §1

NCI-ADR-RES = assay: Growth assay (Cell Titer Glo); assay type: cell-based; details: Homo sapiens, multi-drug resistant
Procedure: as §2, §3, §1

HOP-62 = assay: Growth assay (Cell Titer Glo); assay type: cell-based; details: Homo sapiens; HOP-62, lung
Procedure: as §2, §3, §1

M14 = assay: Growth assay (Cell Titer Glo); assay type: cell-based; details: Homo sapiens; M14, melanoma
Procedure: as §2, §3, §1

SKOV-3 = assay: Growth assay (Cell Titer Glo); assay type: cell-based; details: Homo sapiens; SKOV-3 / SK-OV-3, ovarian
Procedure: as §2, §3, §1

EKVX = assay: Growth assay (Cell Titer Glo); assay type: cell-based; details: Homo sapiens, lung
Procedure: as §2, §3, §1

UO-31 = assay: Growth assay (Cell Titer Glo); assay type: cell-based; details: Homo sapiens; UO-31, renal
Procedure: as §2, §3, §1

HT-29 = assay: Growth assay (Cell Titer Glo); assay type: cell-based, human; details: HT-29 colon
Procedure: Compounds 2a-h were tested for tumor cell growth inhibitory activity using the human breast MDA-MB-231 and ZR75-1 tumor cell lines and the colon CACO-2, SW-1116, and HT-29 tumor cell lines.
as §2, §3, §1

For COC(=O)[C@H]1Cc2c([nH]c3ccccc23)[C@H](c2cc(OC)ccc2OC)N1C(=O)CCl [Compound 2f, Methyl (1S,3R)-1-(2,5-dimethoxyphenyl)-2-(2-chloroacetyl)-2,3,4,9-tetrahydro-1H-β-carboline-3-carboxylate], the melting point was 232 °C, the IC50 ([1]; CAKI-1, CAKI-1, renal, read-out: IC50) was less than 6 nM and the IC50 (HCT-15) was greater than 10000 nM. For the same compound, the IC50 (786-0) was 32 nM, the IC50 (NCI-H460) was greater than 10000 nM and the IC50 (HL-60(TB)) was 17 nM. For the same compound, the IC50 (OVCAR-5) was 1000 nM, the IC50 (SNB-75) was 63 nM and the IC50 (UACC-62) was 119 nM. For the same compound, the IC50 (OVCAR-4) was 15 nM, the IC50 (SW-620) was 3310 nM and the IC50 (PC-3) was 192 nM. The IC50 (DU-145) was 232 nM, the IC50 (KM12) was 1370 nM and the IC50 (SR) was less than 7 nM. For the same compound, the IC50 (RXF-393) was 3 nM, the IC50 (NCI-H322M) was 2460 nM and the IC50 (T-47D) was 973 nM. It also gave an IC50 (NCI-H23) of 13 nM, an IC50 (SN12C) of 375 nM and an IC50 (OVCAR-8) of 68 nM. It also gave an IC50 (RPMI-8226) of 17 nM, an IC50 (MALME-3M) of 132 nM and an IC50 ([2]; MDA-MB-231, 72 h, MDA-MB-231 breast, 72 h, Tables 3-5, read-out: IC50 value, μM, growth) of 0.006 µM. For the same compound, the IC50 (SF-539) was 34 nM, the IC50 (IGROVI) was 10 nM and the IC50 (SF-268) was 690 nM. It also gave an IC50 (ACHN) of 1.3 nM, an IC50 (CCFR-CEM) of less than 6 nM and an IC50 (NCI-ADR-RES) of 23 nM. It also gave an IC50 (HOP-62) of 20 nM, an IC50 (M14) of 485 nM and an IC50 (SKOV-3) of 60 nM. It also gave an IC50 (EKVX) of 14 nM, an IC50 (UO-31) of less than 9 nM and an IC50 (HT-29; 72 h) of 0.452 µM. It also gave an IC50 (HT-29; Homo sapiens, HT-29, 72 h) of 0.45 µM.
For COC(=O)[C@H]1Cc2c([nH]c3ccccc23)[C@H](c2ccc(Cl)cc2Cl)N1C(=O)CCl [Compound 2j, (1S,3R) Methyl 1-(2,4-dichlorophenyl)-2-(2-chloroacetyl)-2,3,4,9-tetrahydro-1H-β-carboline-3-carboxylate], the melting point was 106 to 109 °C, the IC50 ([1]; CAKI-1, 72 h, FIG. 3A legend, read-out: IC50 value, tumor cell growth) was 2.3 nM and the IC50 (HCT-15) was greater than 3000 nM. It also gave an IC50 (786-0) of 20 nM, an IC50 (NCI-H460) of less than 1 nM and an IC50 (HL-60(TB)) of 40 nM. It also gave an IC50 (OVCAR-5) of 490 nM, an IC50 (SNB-75) of 100 nM and an IC50 (UACC-62) of 290 nM. It also gave an IC50 (OVCAR-4) of 50 nM, an IC50 (SW-620) of 2750 nM and an IC50 (PC-3) of 340 nM. For the same compound, the IC50 (DU-145) was greater than 3000 nM, the IC50 (KM12) was 630 nM and the IC50 (SR) was 8 nM. The IC50 (RXF-393) was 15 nM, the IC50 (NCI-H322M) was greater than 3000 nM and the IC50 (T-47D) was 120 nM. For the same compound, the IC50 (NCI-H23) was greater than 3000 nM, the IC50 (SN12C) was greater than 3000 nM and the IC50 (OVCAR-8) was 50 nM. It also gave an IC50 (RPMI-8226) of 80 nM, an IC50 (MALME-3M) greater than 3000 nM and an inhibition at 10 µM ([2]; MDA-MB-231, MDA-MB-231, 10 μM, mean +/− spread) of 98%. The IC50 ([2]; MDA-MB-231, MDA-MB-231, Tables 1 and 2, read-out: Growth Inhibition IC50, μM (95% CI)) was 0.07 µM, the IC50 (SF-539) was 160 nM and the IC50 (IGROVI) was 20 nM. The IC50 (SF-268) was 100 nM, the IC50 (ACHN) was 10 nM and the IC50 (CCFR-CEM) was 10 nM. The IC50 (NCI-ADR-RES) was 20 nM, the IC50 (HOP-62) was 200 nM and the IC50 (M14) was 2260 nM. It also gave an IC50 (SKOV-3) of 320 nM, an IC50 (EKVX) of 20 nM and an IC50 (UO-31) of 5 nM. The IC50 (HT-29; Homo sapiens, HT-29, 72 h) was 0.65 µM.
